Values of other authors in US9192591B2, “Method and composition for treating alzheimer-type dementia” (priority 2008, dated 2015).

How the values were obtained:
[1] = system: patients with dementias of the Alzheimer type; details: donepezil 5-10 mg per day; rivastigmine 1-4 and 6-12 mg per day; galantamine 8-32 mg per day
[2] = system: patients
[3] = system: patients with Alzheimer's disease; details: skin patches replacing immediate release tablets
[4] = system: patients with Alzheimer's disease treated with tacrine; details: propantheline 7.5 mg to 15 mg four times a day

| SMILES | benefits on cognitive and global measures relevant to dementia [1] | patients who discontinued because of vomiting ([2]; compared to less than 1% on placebo) | patients in whom weight declined ([2]; during rivastigmine therapy) [%] | patients reporting loss of appetite ([2]; in vivo) [%] | patients who become nauseated ([2]; oral 6-12 mg/day) | patients who vomit at least once ([2]; oral 6-12 mg/day) | patients with mild or moderate vomiting ([2]; rivastigmine-treated patients) [%] | patients with severe vomiting ([2]; rivastigmine-treated patients) [%] | amount of cognitive improvement and side effects on doubling the dose [3] | effect on peripheral cholinergic gastrointestinal side effects of tacrine (cramping, nausea, vomiting, diarrhea) [4] |
| --- | --- | --- | --- | --- | --- | --- | --- | --- | --- | --- |
| COc1cc2c(cc1OC)C(=O)C(CC1CCN(Cc3ccccc3)CC1)C2 (racemic) [donepezil, (±)-2,3-dihydro-5,6-dimethoxy-2-[[1-(phenylmethyl)-4-piperidinyl]methyl]-1H-inden-1-one] | small, but statistically significant, benefits |  |  |  |  |  |  |  |  |  |
| CCN(C)C(=O)Oc1cccc([C@H](C)N(C)C)c1 [rivastigmine, (S)—N-Ethyl-N-methyl-3-[1-(dimethylamino)ethyl]-phenyl carbamate] | small, but statistically significant, benefits | Five | 25 | 17 | About half | about one-third | 14 | 2 | significantly increased the amount of cognitive improvement in patients with Alzheimer's disease without increasing side effects |  |
| CC(C)[N+](C)(CCOC(=O)C1c2ccccc2Oc2ccccc21)C(C)C [propantheline] |  |  |  |  |  |  |  |  |  | ameliorated |
